Laboratory results as given in the supplement of paper PMC10307832.

Columns and labels:
Assay in all cases: relative viability (nuclei count vs DMSO), 5 days (fraction); higher = more cells survive
Crenolanib + Alpelisib = compound: CC1(COc2ccc3c(c2)ncn3-c2ccc3cccc(N4CCC(N)CC4)c3n2)COC1 [Crenolanib] + Cc1nc(NC(=O)N2CCC[C@H]2C(N)=O)sc1-c1ccnc(C(C)(C)C(F)(F)F)c1 [Alpelisib] (partner 2 µM)
Summary of the method: (§1)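 For relative viability, nuclei counts in treated wells were divided by those in vehicle wells. Lung cancer cell lines had been pin-tool dosed in 1536-well plates the day after seeding and cultured for 5 days, then fixed and stained in one step (final 0.05% Triton X-100, 1% formaldehyde, 1 ug/ml Hoechst) and imaged at 4×. Doses were one drug alone or a fixed anchor-drug dose plus five library-drug doses (not always all listed) in √10 steps, and values are duplicate-plate medians.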

Crenolanib + Dasatinib = compound: CC1(COc2ccc3c(c2)ncn3-c2ccc3cccc(N4CCC(N)CC4)c3n2)COC1 [Crenolanib] + Cc1nc(Nc2ncc(C(=O)Nc3c(C)cccc3Cl)s2)cc(N2CCN(CCO)CC2)n1 [Dasatinib] (partner 0.075 µM)
Summary of the method: as §1

Tivantinib + Foretinib = compound: O=C1NC(=O)[C@@H](c2cn3c4c(cccc24)CCC3)[C@@H]1c1c[nH]c2ccccc12 [Tivantinib] + COc1cc2c(Oc3ccc(NC(=O)C4(C(=O)Nc5ccc(F)cc5)CC4)cc3F)ccnc2cc1OCCCN1CCOCC1 [Foretinib] (partner 0.25 µM)
Summary of the method: as §1

Tivantinib + Crizotinib = compound: O=C1NC(=O)[C@@H](c2cn3c4c(cccc24)CCC3)[C@@H]1c1c[nH]c2ccccc12 [Tivantinib] + C[C@@H](Oc1cc(-c2cnn(C3CCNCC3)c2)cnc1N)c1c(Cl)ccc(F)c1Cl [Crizotinib] (partner 1 µM)
Summary of the method: as §1

Row | Cell Line | relative viability (Crenolanib + Alpelisib; first compound 0.01 µM) | relative viability (Crenolanib + Alpelisib; first compound 0.03162 µM) | relative viability (Crenolanib + Alpelisib; first compound 0.1 µM) | relative viability (Crenolanib + Alpelisib; first compound 0.3162 µM) | relative viability (Crenolanib + Alpelisib; first compound 1 µM) | relative viability (Crenolanib + Dasatinib; first compound 0.01 µM) | relative viability (Crenolanib + Dasatinib; first compound 0.03162 µM) | relative viability (Crenolanib + Dasatinib; first compound 0.1 µM) | relative viability (Crenolanib + Dasatinib; first compound 0.3162 µM) | relative viability (Crenolanib + Dasatinib; first compound 1 µM) | relative viability (Tivantinib + Foretinib; first compound 0.01 µM) | relative viability (Tivantinib + Foretinib; first compound 0.03162 µM) | relative viability (Tivantinib + Foretinib; first compound 0.1 µM) | relative viability (Tivantinib + Foretinib; first compound 0.3162 µM) | relative viability (Tivantinib + Crizotinib; first compound 0.01 µM) | relative viability (Tivantinib + Crizotinib; first compound 0.03162 µM) | relative viability (Tivantinib + Crizotinib; first compound 0.1 µM) | relative viability (Tivantinib + Crizotinib; first compound 0.3162 µM)
1 | NCI-H1944 | 0.881 | 0.892 | 0.742 | 0.927 | 0.819 | 0.255 | 0.234 | 0.213 | 0.211 | 0.168 | 0.795 | 0.874 | 0.851 | 0.63 | 1.01 | 1.01 | 1.03 | 0.64
2 | NCI-H1975 | 0.602 | 0.663 | 0.605 | 0.642 | 0.61 | 0.412 | 0.348 | 0.352 | 0.395 | 0.408 | 0.904 | 0.974 | 0.905 | 0.996 | 0.938 | 0.929 | 0.924 | 1.05
3 | NCI-H1993 | 0.682 | 0.629 | 0.688 | 0.737 | 0.709 | 0.621 | 0.63 | 0.588 | 0.623 | 0.429 | 0.808 | 0.762 | 0.766 | 0.545 | 0.931 | 0.929 | 0.899 | 0.765
4 | NCI-H2009 | 1.12 | 1.19 | 1.06 | 1.18 | 1.07 | 0.323 | 0.297 | 0.257 | 0.294 | 0.227 | 1.23 | 1.22 | 1.21 | 1.27 | 1.05 | 1.07 | 1.06 | 0.98
5 | NCI-H2023 | 0.627 | 0.655 | 0.594 | 0.725 | 0.635 | 0.656 | 0.603 | 0.669 | 0.743 | 0.567 | 0.787 | 0.841 | 0.816 | 0.516 | 0.602 | 0.762 | 0.673 | 0.639
6 | NCI-H2085 | 1.11 | 0.918 | 0.948 | 1.06 | 1.05 | 0.27 | 0.26 | 0.263 | 0.216 | 0.315 | 0.921 | 1.13 | 0.916 | 0.666 | 0.909 | 0.76 | 0.75 | 0.756
7 | NCI-H2087 | 0.86 | 1.11 | 0.942 | 1.02 | 1.17 | 0.809 | 1.03 | 0.694 | 1.07 | 0.818 | 1.1 | 1.16 | 0.914 | 1.13 | 0.987 | 0.913 | 0.856 | 1.01
8 | NCI-H2126 | 0.8 | 0.752 | 0.761 | 0.787 | 0.715 | 0.595 | 0.635 | 0.604 | 0.74 | 0.616 | 1.16 | 1.12 | 1.04 | 0.829 | 1.02 | 1.01 | 0.983 | 1.03
9 | NCI-H2170 | 0.856 | 0.815 | 0.814 | 0.951 | 0.912 | 0.697 | 0.569 | 0.591 | 0.598 | 0.641 | 0.975 | 0.929 | 1.02 |  | 1.31 | 1.13 | 1.04 | 
10 | NCI-H2228 | 0.842 | 0.863 | 0.712 | 0.867 | 0.748 | 0.488 | 0.555 | 0.519 | 0.46 | 0.518 |  | 0.841 | 0.678 | 0.714 | 0.449 | 0.481 | 0.427 | 0.337
11 | NCI-H2347 | 1.1 | 1.04 | 0.642 | 1.09 | 1.14 | 0.31 |  |  | 0.278 | 0.295 | 0.94 | 1.12 | 0.712 | 1.05 | 0.756 | 0.564 | 0.74 | 0.674
12 | NCI-H2405 | 1 | 0.76 | 0.496 | 0.68 | 0.691 | 0.225 | 0.214 |  | 0.181 | 0.196 | 1.16 | 1.07 | 1.05 | 0.98 | 0.892 | 0.879 | 0.821 | 0.821
13 | NCI-H3122 | 0.768 | 0.81 | 0.827 | 0.78 | 0.979 | 0.862 | 0.73 | 0.782 | 0.963 | 0.972 | 0.947 | 0.982 | 0.909 | 0.951 | 0.271 | 0.275 | 0.252 | 0.272
14 | PC-3 [JPC-3] | 1.07 | 0.982 | 0.981 | 1.02 | 1.04 | 0.989 | 0.974 | 0.974 | 1.12 | 1.06 | 1 | 1.12 | 1.06 | 0.904 | 1.03 | 1.05 | 0.996 | 0.759
15 | PC-14 | 1.01 | 0.969 | 0.858 | 1.04 | 0.894 | 0.289 | 0.262 | 0.259 | 0.263 | 0.266 | 0.93 | 0.893 | 0.984 | 1.05 | 0.912 | 0.883 | 0.934 | 0.894
16 | RERF-LC-KJ | 0.839 | 0.761 | 0.802 | 1.03 | 0.73 | 0.81 | 0.961 | 0.933 | 0.956 | 0.733 | 0.911 | 0.908 | 0.85 | 0.883 | 0.831 | 0.886 | 0.852 | 0.831
17 | SK-LU-1 | 1.04 | 0.931 | 0.703 | 1.27 | 0.87 | 0.198 | 0.182 | 0.159 | 0.194 | 0.172 | 0.932 | 0.919 | 0.705 | 0.708 | 0.95 | 1.01 | 0.872 | 0.716
18 | SK-MES-1 | 0.849 | 0.972 | 0.866 | 0.916 | 0.95 | 0.39 | 0.448 | 0.358 | 0.409 | 0.358 | 1.02 | 0.637 | 0.962 | 0.924 | 0.984 | 1.06 | 0.89 | 0.739
